Laboratory results as given in patent US12091410B2, “Heterocyclic compound” (Takeda Pharmaceutical Company Limited, priority 2018, dated 2024).

The molecules below were run against T1, human orexin type 2 receptor (Homo sapiens, UniProt O43614) (assay: Measurement of orexin type 2 receptor agonist activity (calcium fluorescence, Fluo-4 AM, CHO cells forcibly expressing human OX2 receptor)). Conditions: test compound 3 μM, DMSO = 0%, orexin A (human) 10 nM = 100%.
T1 construct: expressed in transfected cells
T1 sequence (O43614 1-444): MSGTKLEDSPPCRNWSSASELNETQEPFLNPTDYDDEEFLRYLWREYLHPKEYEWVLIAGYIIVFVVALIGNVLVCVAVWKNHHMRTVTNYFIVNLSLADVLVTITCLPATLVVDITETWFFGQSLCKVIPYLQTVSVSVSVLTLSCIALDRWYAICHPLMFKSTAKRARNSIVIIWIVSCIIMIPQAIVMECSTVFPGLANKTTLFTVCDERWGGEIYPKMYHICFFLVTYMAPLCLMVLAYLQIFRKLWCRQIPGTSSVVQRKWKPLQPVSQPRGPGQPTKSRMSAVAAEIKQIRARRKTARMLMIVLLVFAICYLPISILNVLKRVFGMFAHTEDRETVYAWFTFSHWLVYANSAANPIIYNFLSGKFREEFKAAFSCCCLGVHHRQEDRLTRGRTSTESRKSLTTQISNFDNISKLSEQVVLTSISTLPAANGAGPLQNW
Type: cell-based
Excerpt: To obtain a cell clone stably expressing human orexin type 2 receptor, human orexin type 2 receptor cDNA was inserted into pcDNA3.1(+) plasmid vector (Invitrogen), and a plasmid DNA for expression of human orexin type 2 receptor (pcDNA3.1(+)/hOX2R) was cloned. The plasmid DNA was introduced into CHO-dhfr cell by an electroporation method, and human orexin type 2 receptor expressing clone cells were obtained by limiting dilution method by using G418 drug resistance as a selection marker.
CHO cells forcibly expressing human OX2 receptor were seeded in each well of 384 well black transparent bottom plate (BD Falcon) at 7,500 cells/well, and cultured for one day in a 5% CO2 incubator at 37° C. After removal of the medium in the cell plate, assay buffer A containing a calcium indicator (HBSS (Thermo Fisher Scientific), 20 mM HEPES (Thermo Fisher Scientific), 0.1% BSA (Sigma-Aldrich), 2.5 μg/mL Fluo-4 AM (DOJINDO Chemical), 0.08% Pluronic F127 (DOJINDO Chemical), 1.25 mM probenecid (DOJINDO Chemical)) was added at 30 μL/well. The plate was stood for 30 min in a 5% CO2 incubator at 37° C., and further stood at room temperature for 30 min. A test compound prepared by diluting with assay buffer B (HBSS, 20 mM HEPES, 0.1% BSA) was added at 10 μL/well, and the fluorescence value was measured by FDSSpCELL (Hamamatsu Photonics K. K.) every one sec for 1 min, and thereafter every two sec for 1 min 40 sec. The activity (%) of the test compound was calculated assuming that variation in the fluorescence value when DMSO was added instead of the test compound was 0%, and variation in the fluorescence value when orexin A (human) (PEPTIDE INSTITUTE, INC.) was added at the final concentration of 10 nM was 100%.

OX2R agonist activity (3 μM, %) [%]	SMILES
94	Cc1cn2c(n1)[C@@H](Cc1cccc(-c3cccc(F)c3)c1)[C@@H](NS(C)(=O)=O)CC2 (relative stereo) [Example 57, rel-N-{(7S,8S)-8-[(3′-fluoro[1,1′-biphenyl]-3-yl)methyl]-2-methyl-5,6,7,8-tetrahydroimidazo[1,2-a]pyridin-7-yl}methanesulfonamide]
95	CCS(=O)(=O)N[C@H]1CCn2cc(C)nc2[C@H]1Cc1cccc(-c2cccc(F)c2)c1 (relative stereo) [Example 58, rel-N-{(7S,8S)-8-[(3′-fluoro[1,1′-biphenyl]-3-yl)methyl]-2-methyl-5,6,7,8-tetrahydroimidazo[1,2-a]pyridin-7-yl}ethanesulfonamide]
101	CCc1cc2n(n1)[C@@H](COC1CCN(c3ncccn3)CC1)[C@@H](NS(C)(=O)=O)CC2 (relative stereo) [Example 59, rel-N-[(6S,7R)-2-ethyl-7-({[1-(pyrimidin-2-yl)piperidin-4-yl]oxy}methyl)-4,5,6,7-tetrahydropyrazolo[1,5-a]pyridin-6-yl]methanesulfonamide]
92	Cc1cn2c(n1)C(COC1CCN(c3ncc(F)cn3)CC1)C(NC(=O)[C@@H]1CCCO1)CC2 (stereo in doubt) [Example 63, (2S)—N-[(7S*,8S*)-8-({[1-(5-fluoropyrimidin-2-yl)piperidin-4-yl]oxy}methyl)-2-methyl-5,6,7,8-tetrahydroimidazo[1,2-a]pyridin-7-yl]oxolane-2-carboxamide]
